According to article PMC5216742, “Discovery and characterization of a novel potent type II native and mutant BCR-ABL inhibitor (CHMFL-074) for Chronic Myeloid Leukemia (CML)” (Oncotarget, 2016):
Entries after “also recorded” stand apart in the source; their conditions may differ. Read-outs that look alike come from different tables or passages of the source.

Columns and labels:
RET(M918T) = target: T1, RET(M918T) (Homo sapiens, UniProt P07949, M918T); experiment: KinomeScan profiling; type: binding; details: 1 µM CHMFL-074; read-out: % Control
T1 construct: purchased DiscoveRx (KinomeScan service)

[1] = target: T2, ABL1(H396P)-nonphosphorylated (Homo sapiens, UniProt P00519, H396P); experiment: KinomeScan profiling; type: binding; details: 1 µM CHMFL-074; read-out: % Control
T2 construct: purchased DiscoveRx (KinomeScan service)

[2] = target: T3, ABL1(E255K)-phosphorylated (Homo sapiens, UniProt P00519, E255K); experiment: KinomeScan profiling; type: binding; details: 1 µM CHMFL-074; read-out: % Control
T3 construct: purchased DiscoveRx (KinomeScan service)

[3] = target: T4, ABL1(Q252H)-phosphorylated (Homo sapiens, UniProt P00519, Q252H); experiment: KinomeScan profiling; type: binding; details: 1 µM CHMFL-074; read-out: % Control
T4 construct: purchased DiscoveRx (KinomeScan service)

[4] = In vivo pharmacokinetics study; details: male, Sprague-Dawley, plasma, rat; for MRT inf: read-out: MRT(0-∞)
Description: The final concentration of the stock solution was 1 mg/mL for administration. […] Each time about 0.2 mL blood was collected through the jugular vein adding heparin for anticoagulation and kept on ice. Then plasma was separated by centrifugation at 8000 rpm for 6 minutes at 2–8°C. The obtained plasma was stored at −80°C before analysis. After finishing the test, all surviving animals will be transferred to the repository or euthanasia (CO2 asphyxiation).

ABL1-phosphorylated = target: T5, ABL1-phosphorylated (Homo sapiens, UniProt P00519); experiment: KinomeScan profiling; type: binding; details: 1 µM CHMFL-074; read-out: % Control
T5 construct: purchased DiscoveRx (KinomeScan service)

KIT(L576P) = target: T6, KIT(L576P) (Homo sapiens, UniProt P10721, L576P); experiment: KinomeScan profiling; type: binding; details: 1 µM CHMFL-074; read-out: % Control
T6 construct: purchased DiscoveRx (KinomeScan service)

K562 tumor xenografts = experiment: K562 xenograft tumor model; type: in vivo
Source text: Five-week old female nu/nu mice were purchased from the Shanghai Experimental Center, Chinese Science Academy (Shanghai, China). All animals were housed in a specific pathogen-free facility and used according to the animal care regulations of Hefei Institutes of Physical Science Chinese Academy of Sciences. Prior to implantation, cells were harvested during exponential growth. Five million K562 cells in PBS were formulated as a 1:1 mixture with Matrigel (BD Biosciences) and injected into the subcutaneous space on the right flank of nu/nu mice. Daily oral administration was initiated when K562 tumors had reached a size of 200 to 300 mm^3. Animals were then randomized into treatment groups of 6 mice each for efficacy studies. CHMFL-074 was delivered daily in a HKI solution (0.5% Methocellulose/0.4% Tween 80 in dd H2O) by orally gavage. Body weight was measured daily and tumor growth was measured every day after CHMFL-074 treatment. Tumor volumes were calculated as follows: tumor volume (mm^3) = [(W^2 × L)/2] in which width (W) is defined as the smaller of the two measurements and length (L) is defined as the larger of the two measurements.

[5] = test system: normal human B-cells purified from the peripheral blood; experiment: Proliferation assay on normal cells from peripheral blood; type: cell-based; details: at 1 μM
Description: Mononuclear cells were isolated from CML patients or healthy donors by density-gradient centrifugation through Ficoll (Beijing Solarbio Science & Technology Co., Ltd., Beijing, China) at 400 g for 30 min, followed by two washes in 1× phosphate-buffered saline. Cells were then cultured in liquid culture (RPMI1640, supplemented with 20% FBS). All blood samples from CML patients and healthy donors were obtained through written consent under approval of the Chinese Academy of Sciences Institutional Review Board. The ethics committees approved the consent Procedure. CML primary patient cells were tested in liquid culture (RPMI1640, supplemented with 20% FBS) in the presence of different concentrations of CHMFL-074. The trypan blue exclusion assay was used for quantification of cells for seeding for before Cell-Titer Glo assays (Promega, USA). The Cell-Titer Glo assay was used for proliferation studies and carried out according to manufacturer's instructions. Cell viability is reported as percentages of control (untreated) cells.

BCR-ABL = target: T7, BCR-ABL (Homo sapiens, UniProt P00519); experiment: BCR-ABL auto-phosphorylation (Y245) immunoblotting in K562 cells; type: cell-based
T7 construct: BCR N-terminal part (natural fusion partner of p210 BCR-ABL); endogenous in cells; host or cells: K562
Description: Cells were washed with ice cold phosphate buffered saline (PBS), lysed using radio-immunoprecipitation (RIPA) buffer [150 mM NaCl, 1% (vol/vol) Nonidet P-40, 0.5% (wt/vol) sodium deoxycholate, 0.1% (wt/vol) SDS] in 50 mM Tris HCl (pH 8.0) supplemented with protease and phosphatase inhibitors (Thermo, USA). Protein concentrations were determined using the BCA Protein Assay kit (Beyotime, China) according to the manufacturer's protocol. Proteins were separated by SDS-PAGE and transferred to an Immobilon-P PVDF membrane (Millipore, USA), and blocked in 5% dry milk in Tris Buffered Saline, with Tween 20 (TBST). Membranes were incubated with primary and secondary antibodies, and target proteins were detected with ECL detection reagent (Pierce, USA). β-Actin (Sigma-Aldrich) served as a loading control. Phospho-c-Abl (Tyr245)(73E5) Rabbit mAb (2868), c-Abl antibody (2862), STAT5 (3H7) Rabbit mAb (9358), Phospho-STAT5 (Tyr694)(C71E5) Rabbit mAb (9314), Akt (pan)(C67E7) Rabbit mAb (4691), Phospho-Akt (Thr308) (244F9) Rabbit mAb (4056), Phospho-Akt (Ser473) (D9E) XP® Rabbit mAb (4060), Phospho-CrkL (Tyr207) antibody (3181), CrkL (32H4) Mouse mAb (3182), Phospho-p44/42 MAPK (Erk1/2) (Thr202/Tyr204) (197G2) Rabbit mAb (4377), p44/42 MAPK (Erk1/2) (137F5) Rabbit mAb (4695) antibodies were obtained from Cell Signaling Technology (MA, USA).

T6 sequence (P10721 26-976 L576P): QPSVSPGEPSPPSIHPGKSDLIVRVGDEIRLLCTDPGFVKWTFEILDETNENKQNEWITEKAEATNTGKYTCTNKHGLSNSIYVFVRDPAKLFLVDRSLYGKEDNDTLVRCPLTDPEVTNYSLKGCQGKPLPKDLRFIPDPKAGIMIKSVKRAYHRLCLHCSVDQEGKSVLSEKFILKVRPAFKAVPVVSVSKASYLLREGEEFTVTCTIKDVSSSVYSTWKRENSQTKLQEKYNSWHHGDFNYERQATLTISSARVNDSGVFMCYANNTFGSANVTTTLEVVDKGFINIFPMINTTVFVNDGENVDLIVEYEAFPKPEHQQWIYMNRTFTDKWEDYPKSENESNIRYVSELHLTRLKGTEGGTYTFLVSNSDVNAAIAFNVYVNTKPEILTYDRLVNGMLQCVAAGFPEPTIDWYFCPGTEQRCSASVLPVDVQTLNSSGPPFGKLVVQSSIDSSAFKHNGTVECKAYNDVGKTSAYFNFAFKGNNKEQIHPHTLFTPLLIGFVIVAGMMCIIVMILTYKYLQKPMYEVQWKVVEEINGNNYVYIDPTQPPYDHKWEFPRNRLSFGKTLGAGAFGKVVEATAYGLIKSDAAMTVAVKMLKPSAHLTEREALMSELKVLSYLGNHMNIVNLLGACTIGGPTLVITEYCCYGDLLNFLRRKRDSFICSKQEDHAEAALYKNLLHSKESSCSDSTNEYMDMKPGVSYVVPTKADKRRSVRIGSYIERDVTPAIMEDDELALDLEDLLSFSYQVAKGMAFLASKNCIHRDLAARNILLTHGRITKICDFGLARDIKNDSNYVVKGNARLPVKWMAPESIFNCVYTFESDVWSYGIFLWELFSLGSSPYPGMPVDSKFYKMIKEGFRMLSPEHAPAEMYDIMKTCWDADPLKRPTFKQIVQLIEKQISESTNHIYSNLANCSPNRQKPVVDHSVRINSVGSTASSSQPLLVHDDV
T1 sequence (P07949 29-1114 M918T): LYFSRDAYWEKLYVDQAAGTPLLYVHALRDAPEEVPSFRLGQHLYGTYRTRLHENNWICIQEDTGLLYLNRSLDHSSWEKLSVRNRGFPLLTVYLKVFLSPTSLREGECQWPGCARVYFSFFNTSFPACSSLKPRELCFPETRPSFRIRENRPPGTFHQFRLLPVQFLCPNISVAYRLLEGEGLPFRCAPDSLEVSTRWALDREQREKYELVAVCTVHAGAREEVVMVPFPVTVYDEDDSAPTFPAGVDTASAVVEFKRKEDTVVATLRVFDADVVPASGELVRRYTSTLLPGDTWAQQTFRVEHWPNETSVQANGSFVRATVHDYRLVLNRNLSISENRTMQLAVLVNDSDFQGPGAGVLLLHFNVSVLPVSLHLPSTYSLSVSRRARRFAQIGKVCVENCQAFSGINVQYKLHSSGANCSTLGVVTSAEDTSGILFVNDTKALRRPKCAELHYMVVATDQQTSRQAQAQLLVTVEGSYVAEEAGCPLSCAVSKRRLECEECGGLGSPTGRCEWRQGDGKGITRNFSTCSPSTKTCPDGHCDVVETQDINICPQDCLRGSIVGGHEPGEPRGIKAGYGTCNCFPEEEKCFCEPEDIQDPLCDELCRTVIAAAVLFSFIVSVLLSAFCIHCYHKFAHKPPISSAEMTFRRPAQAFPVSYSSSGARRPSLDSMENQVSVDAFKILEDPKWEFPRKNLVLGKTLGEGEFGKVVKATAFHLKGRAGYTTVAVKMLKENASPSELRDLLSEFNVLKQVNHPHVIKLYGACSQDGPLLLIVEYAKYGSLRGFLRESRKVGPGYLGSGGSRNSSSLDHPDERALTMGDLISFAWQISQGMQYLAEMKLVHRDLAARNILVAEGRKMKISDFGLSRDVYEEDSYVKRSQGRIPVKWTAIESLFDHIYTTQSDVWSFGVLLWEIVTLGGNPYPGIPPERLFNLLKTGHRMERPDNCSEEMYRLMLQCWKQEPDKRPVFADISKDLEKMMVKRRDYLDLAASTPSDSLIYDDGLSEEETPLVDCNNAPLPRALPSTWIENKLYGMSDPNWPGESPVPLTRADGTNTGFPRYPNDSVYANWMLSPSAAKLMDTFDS

## Cc1ccc(NC(=O)c2ccc(CN3CCN(C)CC3)c(C(F)(F)F)c2)cc1OC1CCN(C(=O)c2cccnc2)CC1 [CHMFL-074]
RET(M918T)
  remaining binding at 1 µM: 0.15%
[1]
  remaining binding at 1 µM: 0.15%
[2]
  remaining binding at 1 µM: 0.3%
[3]
  remaining binding at 1 µM: 0.4%
[4]; IV 1mg/kg, mean
  AUC(0-inf): 340 ng·h/mL
  AUC(0-t): 337 ng·h/mL
  Cmax: 739 ng/mL
  Tmax: 0.02 h
  half-life: 1.23 h
  MRT inf: 1.29 h
[4]; IV 1mg/kg, mean, read-out: CLz (converted)
  clearance: 49.3 mL/min/kg
[4]; IV 1mg/kg, mean, read-out: Vz
  Vd: 5.25 L/kg
[4]; PO 10 mg/kg, mean
  AUC(0-inf): 1460 ng·h/mL
  AUC(0-t): 1130 ng·h/mL
  Cmax: 190 ng/mL
  Tmax: 4 h
  half-life: 3.38 h
  MRT inf: 6.58 h
[4]; PO 10 mg/kg, read-out: F (bioavailability)
  bioavailability: 42.9%
ABL1-phosphorylated
  remaining binding at 1 µM: 0.2%
KIT(L576P)
  remaining binding at 1 µM: 1%
K562 tumor xenografts; 100 mg/kg/d oral, 12-day treatment
  TGI (tumor growth inhibition): 65%
K562 tumor xenografts; 100 mg/kg/day oral
  toxicity in xenograft mice: without exhibiting apparent toxicity; also recorded: no apparent toxicity was observed
[5]
  inhibitory activity against normal human B-cells: did not show any inhibitory activities
BCR-ABL
  EC50: < 100 nM
